The record followed here is patent US20250026752A1, “POSITIVE ALLOSTERIC MODULATORS OF THE MUSCARINIC ACETYLCHOLINE RECEPTOR M4” (Vanderbilt University, priority 2021, published 2025).

This assay concerns the target T1, human mAChR M4 (Homo sapiens, UniProt P08173).
T1 construct: expressed in transfected cells; host or cells: CHO-K1 (ATCC), stably expressing hM4 and Gqi5
T1 sequence (P08173 1-479): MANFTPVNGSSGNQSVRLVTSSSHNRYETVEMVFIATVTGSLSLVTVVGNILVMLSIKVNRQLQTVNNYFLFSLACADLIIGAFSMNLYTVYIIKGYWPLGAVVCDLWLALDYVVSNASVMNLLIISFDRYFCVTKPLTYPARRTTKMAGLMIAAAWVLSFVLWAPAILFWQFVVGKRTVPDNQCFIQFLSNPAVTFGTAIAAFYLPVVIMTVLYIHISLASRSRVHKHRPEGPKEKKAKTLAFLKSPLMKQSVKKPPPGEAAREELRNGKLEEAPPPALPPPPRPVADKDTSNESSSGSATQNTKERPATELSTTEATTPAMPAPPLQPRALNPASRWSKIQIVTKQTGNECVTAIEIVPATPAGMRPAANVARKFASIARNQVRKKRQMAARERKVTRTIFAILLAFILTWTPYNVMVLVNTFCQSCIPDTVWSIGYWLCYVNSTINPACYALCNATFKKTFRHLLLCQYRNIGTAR
In words: mAChR M4 cell-based functional assay: calcium flux (Fluo-4, FDSS), positive allosteric modulator activity on the EC20 acetylcholine response, hM4-Gqi5 CHO-K1 cells. Particulars: for Emax at 30 µM: CHO-K1, human M4, % ACh maximum at 30 μM; for EC50: human M4, PAM activity on EC20 acetylcholine response, calcium flux, read-out: Human M4 EC50. Put shortly:
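CHO-K1 cells stably expressing human M4 with chimeric Gqi5, loaded with Fluo-4 AM for 50 min at 37° C. Compounds (11-point, 1:3 dilutions) added first, then an acetylcholine EC20 at 144 s; calcium read on FDSS at 1 Hz. EC50 is the half-maximal increase above the EC20 baseline, four-parameter logistic fit.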

A value given as a limit tells only on which side of the number the result lay.

For `Cc1nn(C)cc1-c1cnc2c(c1)CN(c1nc(Cl)nc3ccc(Cl)cc13)CC2` [Compound 28, 2,6-dichloro-4-[3-(1,3-dimethylpyrazol-4-yl)-7,8-dihydro-5H-1,6-naphthyridin-6-yl]quinazoline], the Emax at 30 µM was 103% and the EC50 stood at 570 nM.

Take `Fc1cc2ncnc(N3CCc4ncc(N5CCCn6nccc65)cc4C3)c2cc1F` [Compound 93, 4-[3-(6,7-dihydro-5H-pyrazolo[1,5-a]pyrimidin-4-yl)-7,8-dihydro-5H-1,6-naphthyridin-6-yl]-6,7-difluoro-quinazoline]: the Emax at 30 µM was 109% and the EC50 worked out at 50 nM.

For the compound `Fc1ccc2ncnc(N3CCc4ncc(N5CCO[C@H](c6ccccc6)C5)cc4C3)c2c1` [Compound 216, (R)-4-(6-(6-fluoroquinazolin-4-yl)-5,6,7,8-tetrahydro-1,6-naphthyridin-3-yl)-2-phenylmorpholine], the Emax at 30 µM came to 81% and the EC50 is 1050 nM.

On to `Cc1ccc2ncnc(N3CCc4ncc(-c5ccccc5C)cc4C3)c2c1` [Compound 298, 6-methyl-4-(3-(o-tolyl)-7,8-dihydro-1,6-naphthyridin-6(5H)-yl)quinazoline], for which the Emax at 30 µM turned out to be 100% and the EC50 came out at 1300 nM.

Regarding `Fc1ccc2nc(C(F)(F)F)nc(N3CCc4ncc(N5CCOc6ncccc65)cc4C3)c2c1` [Compound 112, 1-[6-[6-fluoro-2-(trifluoromethyl)quinazolin-4-yl]-7,8-dihydro-5H-1,6-naphthyridin-3-yl]-2,3-dihydropyrido[2,3-b][1,4]oxazine], the Emax at 30 µM was found to be 92% and the EC50 is 380 nM.

For the compound `COc1ccc2ncnc(N3CCc4ncc(N5CCCn6nccc65)cc4C3)c2c1` [Compound 77, 4-[3-(6,7-dihydro-5H-pyrazolo[1,5-a]pyrimidin-4-yl)-7,8-dihydro-5H-1,6-naphthyridin-6-yl]-6-methoxy-quinazoline], the Emax at 30 µM was determined as 127% and the EC50 amounted to 70 nM.

Turning to `Cc1nc(N2CCc3ncc(-c4cn(C)nc4C)cc3C2)c2cc(C(F)(F)F)ccc2n1` [Compound 57, 4-[3-(1,3-dimethylpyrazol-4-yl)-7,8-dihydro-5H-1,6-naphthyridin-6-yl]-2-methyl-6-(trifluoromethyl)quinazoline], the maximal response (Emax) at 30 µM was found to be 59% and the EC50 is 2890 nM.

Turning to `Cc1nc(N2CCc3ncc(-c4ccc(C(F)(F)F)nc4)cc3C2)c2cc(Cl)ccc2n1` [Compound 4, 6-chloro-2-methyl-4-[3-[6-(trifluoromethyl)-3-pyridyl]-7,8-dihydro-5H-1,6-naphthyridin-6-yl]quinazoline], the Emax at 30 µM was 57% and the EC50 was 860 nM.

As to `COc1cc2c(N3CCc4ncc(-c5cn(C)nc5C)cc4C3)nc(C)nc2cc1F` [Compound 61, 4-[3-(1,3-dimethylpyrazol-4-yl)-7,8-dihydro-5H-1,6-naphthyridin-6-yl]-7-fluoro-6-methoxy-2-methyl-quinazoline], the Emax at 30 µM was determined as 57% and the EC50 was found to be 450 nM.

For `Fc1ccc2nc(Cl)nc(N3CCc4ncc(Br)cc4C3)c2c1` [Compound 150, 4-(3-bromo-7,8-dihydro-5H-1,6-naphthyridin-6-yl)-2-chloro-6-fluoro-quinazoline], the maximal response (Emax) at 30 µM was found to be 105% and the EC50 is 100 nM.

As for `Cc1nc(N2CCc3ncc(Nc4cccnc4F)cc3C2)c2cc(F)ccc2n1` [Compound 70, 6-(6-fluoro-2-methyl-quinazolin-4-yl)-N-(2-fluoro-3-pyridyl)-7,8-dihydro-5H-1,6-naphthyridin-3-amine], the Emax at 30 µM stood at 85% and the half-maximal effective concentration (EC50) was found to be 130 nM.

Consider `C[C@@H]1CCN(c2cnc3c(c2)CN(c2ncnc4ccc(F)cc24)CC3)c2ccnn21` [Compound 288, (R)-6-fluoro-4-(3-(7-methyl-6,7-dihydropyrazolo[1,5-a]pyrimidin-4(5H)-yl)-7,8-dihydro-1,6-naphthyridin-6(5H)-yl)quinazoline], for which the Emax at 30 µM was determined as 75% and the concentration for a half-maximal effect (EC50) is 40 nM.

Take `Cc1nc(N2CCc3ncc(C(F)(F)F)cc3C2)c2c(Cl)cccc2n1` [Compound 132, 5-chloro-2-methyl-4-[3-(trifluoromethyl)-7,8-dihydro-5H-1,6-naphthyridin-6-yl]quinazoline]: the Emax at 30 µM worked out at 32% and the EC50 is over 10000 nM.

For `CN1CCN(c2cnc3c(c2)CN(c2ncnc4cc(F)c(F)cc24)CC3)CC1=O` [Compound 273, 4-(6-(6,7-difluoroquinazolin-4-yl)-5,6,7,8-tetrahydro-1,6-naphthyridin-3-yl)-1-methylpiperazin-2-one], the Emax at 30 µM came out at 84% and the EC50 amounted to 880 nM.

`Clc1ccc2ncnc(N3CCc4ncc(N5CCCn6nccc65)cc4C3)c2c1` [Compound 83, 6-chloro-4-[3-(6,7-dihydro-5H-pyrazolo[1,5-a]pyrimidin-4-yl)-7,8-dihydro-5H-1,6-naphthyridin-6-yl]quinazoline]: the Emax at 30 µM turned out to be 108% and the EC50 was determined as 20 nM.

Regarding `Fc1cc2c(N3CCc4ncc(Nc5cccnc5F)cc4C3)nc(Cl)nc2cc1Cl` [Compound 110, 6-(2,7-dichloro-6-fluoro-quinazolin-4-yl)-N-(2-fluoro-3-pyridyl)-7,8-dihydro-5H-1,6-naphthyridin-3-amine], the Emax at 30 µM came to 76% and the EC50 is 3870 nM.

`Cc1nc(N2CCc3ncc(N4CCCn5nccc54)cc3C2)c2cc(F)ccc2n1` [Compound 73, 4-[3-(6,7-dihydro-5H-pyrazolo[1,5-a]pyrimidin-4-yl)-7,8-dihydro-5H-1,6-naphthyridin-6-yl]-6-fluoro-2-methyl-quinazoline]: the Emax at 30 µM was found to be 97% and the EC50 worked out at 90 nM.

Regarding `COc1ccc2ncnc(N3CCc4ncc(Oc5ccc(C)cc5F)cc4C3)c2c1` [Compound 146, 4-[3-(2-fluoro-4-methyl-phenoxy)-7,8-dihydro-5H-1,6-naphthyridin-6-yl]-6-methoxy-quinazoline], the maximal effect (Emax) at 30 µM was 40% and the EC50 was over 10000 nM.

`Fc1ccc2ncnc(N3CCc4ncc(-c5ccnn5C5COC5)cc4C3)c2c1` [Compound 265, 6-fluoro-4-(3-(1-(oxetan-3-yl)-1H-pyrazol-5-yl)-7,8-dihydro-1,6-naphthyridin-6(5H)-yl)quinazoline]: the maximal response (Emax) at 30 µM amounted to 76% and the EC50 worked out at 500 nM.

Turning to `Fc1cc2ncnc(N3CCc4ncc(-n5cccn5)cc4C3)c2cc1F` [Compound 238, 4-(3-(1H-pyrazol-1-yl)-7,8-dihydro-1,6-naphthyridin-6(5H)-yl)-6,7-difluoroquinazoline], the Emax at 30 µM is 65% and the EC50 was 220 nM.

For `Fc1ccc2ncnc(N3CCc4ncc(N5CCOC(c6cccnc6)C5)cc4C3)c2c1` (stereo not drawn) [Compound 229, 4-(6-(6-fluoroquinazolin-4-yl)-5,6,7,8-tetrahydro-1,6-naphthyridin-3-yl)-2-(pyridin-3-yl)morpholine], the Emax at 30 µM came to 86% and the EC50 was 510 nM.

`Fc1ccc2ncnc(N3CCc4ncc(-c5cnn(C6CC6)c5)cc4C3)c2c1` [Compound 1, 4-[3-(1-cyclopropylpyrazol-4-yl)-7,8-dihydro-5H-1,6-naphthyridin-6-yl]-6-fluoro-quinazoline]: the Emax at 30 µM stood at 99% and the EC50 turned out to be 130 nM.

As for `Cc1nc(N2CCc3ncc(-c4cn(C)nc4C)cc3C2)c2cc(F)ccc2n1` [Compound 10, 4-[3-(1,3-dimethylpyrazol-4-yl)-7,8-dihydro-5H-1,6-naphthyridin-6-yl]-6-fluoro-2-methyl-quinazoline], the Emax at 30 µM came out at 90% and the concentration for a half-maximal effect (EC50) amounted to 120 nM.

As for `Cc1nc(N2CCc3ncc(-c4cnc(F)cc4C)cc3C2)c2cc(F)ccc2n1` [Compound 305, 6-fluoro-4-(3-(6-fluoro-4-methylpyridin-3-yl)-7,8-dihydro-1,6-naphthyridin-6(5H)-yl)-2-methylquinazoline], the Emax at 30 µM turned out to be 92% and the EC50 turned out to be 130 nM.

As for `COc1cc2c(N3CCc4ncc(-c5cn(C)nc5C)cc4C3)nc(Cl)nc2cc1F` [Compound 60, 2-chloro-4-[3-(1,3-dimethylpyrazol-4-yl)-7,8-dihydro-5H-1,6-naphthyridin-6-yl]-7-fluoro-6-methoxy-quinazoline], the maximal effect (Emax) at 30 µM was 52% and the half-maximal effective concentration (EC50) turned out to be 510 nM.

Consider `Cc1nc(N2CCc3ncc(N4CCOC(c5cccnc5)C4)cc3C2)c2cc(F)ccc2n1` (stereo not drawn) [Compound 230, 4-(6-(6-fluoro-2-methylquinazolin-4-yl)-5,6,7,8-tetrahydro-1,6-naphthyridin-3-yl)-2-(pyridin-3-yl)morpholine], for which the maximal response (Emax) at 30 µM turned out to be 86% and the EC50 turned out to be 500 nM.

As for `Cn1nc(C(F)(F)F)cc1-c1cnc2c(c1)CN(c1ncnc3cc(F)c(F)cc13)CC2` [Compound 271, 6,7-difluoro-4-(3-(1-methyl-3-(trifluoromethyl)-1H-pyrazol-5-yl)-7,8-dihydro-1,6-naphthyridin-6(5H)-yl)quinazoline], the maximal effect (Emax) at 30 µM worked out at 80% and the EC50 was determined as 950 nM.
